The values that follow come from US20240010635A1, “NOVEL INDIRUBIN DERIVATIVES HAVING HETEROBICYCLIC MOIETIES AND THE USE THEREOF” (priority 2022, published 2024).

Holding throughout (type): cell-based
Assay [1] relates to MV4-11. Description: Cell proliferation inhibition in AML cell line MV4-11 (Alamar Blue). The note with it: Homo sapiens, MV4-11, 72 hours, read-out: Cell proliferation inhibitory activity (GI50) MV4-11. The source says: (§1) Cell proliferation inhibition experiments on acute myeloid leukemia (AML) cell lines tested FLT3 inhibitory activity using MV4-11, Molm-13, and Molm-14 cells, which are FLT3-ITD-expressed AML cell lines. The origin of all cell lines is human-derived cell lines, and the place of purchase and culture conditions of each cell line are as follows.
(§2) MV4-11 cells were purchased form the American Type Culture Collection (ATCC, Rockville, MD, USA, cat #CRL-9591), Molm-13 (DSMZ, cat #ACC554), Molm-14 (DSMZ, cat #ACC777), and then cultured in RPMI 1640 medium (Corning Co. 10-040-CV) supplemented with 10% fetal bovine serum, 1% penicillin/streptomycin and 4 mM L-glutamine (Life Technology, GrandIsland, NY).
(§3) Cell viability was evaluated by Resazurin redox-based analysis method with Alamar Blue Assay Kit (Invitrogen, USA). Specifically, for MV4-11, Molm-13 and Molm-14 cells, 8000 cells were plated on 384-well plates in 45 μl of medium. Compounds were treated with dimethyl sulfoxide (DMSO) as a negative control group. After 3 days (72 hours) of compound addition, 5 μl of Alamar Blue kit reagent was added to each well of 384-well plate and incubated at 37° C. for 2 hours in a humidified CO2 incubator. After incubation, fluorescence density (Flu) was measured at a wavelength of 544 nm and 590 nm using SpectraMax iD3 Multi Mode Microplate Reader (Molecular Devices, ID3-STD). GI50 was calculated by nonlinear regression using Prism version 5.01 (GraphPad, LaJolla, CA, USA).
For orientation: The colour change of resazurin is a common sign of viable cells or microbes.

Assay [2] relates to Molm-13. Nature of the assay: Cell proliferation inhibition in AML cell line Molm-13 (Alamar Blue). The following applies: Homo sapiens, Molm-13, 72 hours, read-out: Cell proliferation inhibitory activity (GI50) Molm-13.
Source text: as §1, §2, §3

Assay [3] relates to Molm-14. Nature of the assay: Cell proliferation inhibition in AML cell line Molm-14 (Alamar Blue). The following applies: Homo sapiens, Molm-14, 72 hours, read-out: Cell proliferation inhibitory activity (GI50) Molm-14.
Source text: as §1, §2, §3

Take `O=C1Nc2cc(Br)ccc2/C1=C1/Nc2ccccc2/C1=N\OCCN1CCNCC1` [Comparative Example 1, reference compound]: the values for the GI50 in assay [1], in assay [2] and in assay [3] were 20 nM, 11.2 nM and 9.36 nM, respectively.
Regarding `O=C1Nc2ccc(Br)cc2/C1=C1/Nc2ccccc2/C1=N\OCCN1CCNCC1` [Comparative Example 2, reference compound], the GI50 is 7 nM in assay [1], 4.08 nM in assay [2] and 4.08 nM in assay [3].
`O=C1Nc2ccc(F)cc2/C1=C1/Nc2ccccc2/C1=N\OCCN1CCNCC1` [Comparative Example 3, reference compound]: the GI50 in assay [1] was 3.7 nM; in assay [2] it was 2.53 nM; in assay [3], 1.6 nM.
